The values below come from patent publication US9896441B2 (Lycera Corporation, priority 2014, dated 2018).

For one assay, the target named is T1, RORγ-LBD (Homo sapiens, UniProt P51449).
T1 construct: made in house; host or cells: SF9 cells (baculovirus); used as diluted lysate
T1 sequence (P51449 269-508 limits assumed): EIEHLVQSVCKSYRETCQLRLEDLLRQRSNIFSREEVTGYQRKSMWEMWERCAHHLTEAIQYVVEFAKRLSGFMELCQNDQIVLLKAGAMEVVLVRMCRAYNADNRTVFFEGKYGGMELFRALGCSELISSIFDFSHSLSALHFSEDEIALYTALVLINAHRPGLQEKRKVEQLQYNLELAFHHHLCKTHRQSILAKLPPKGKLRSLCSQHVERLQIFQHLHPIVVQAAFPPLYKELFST
In words: RORγ-Ligand Binding Domain (LBD) TR-FRET Assay.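 As to TR-FRET Assay Max Response: 665/615 nm signal ratio set to 100 without ursolic acid or test compound.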 It counts as biochemical. The conditions noted are these: for TR-FRET Assay Max Response: maximum response. Summed up:
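SF9 lysate containing His-RORγ-LBD, ~3 nM final; coactivator peptide biotin-SRC1 LXXLL, 200 nM final; ursolic acid 2 μM final; DMSO 1% final; Tris pH 7.0 buffer with KCl, EDTA, DTT, BSA. TR-FRET format.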
In general terms: TR-FRET usually uses a lanthanide donor and a delayed reading to cut background.

For another assay, the target named is T2, Gal4-RORγ-LBD (Homo sapiens, UniProt P51449).
T2 construct: expressed in transfected cells
T2 sequence (P51449 269-508 limits assumed): T1 sequence (P51449 269-508 limits assumed)
Kind of assay: Gal4-RORγ Luciferase Reporter Assay in HEK-293T Cells. It is filed as cell-based. The conditions noted are these: HEK-293 cells; for Gal4-RORγ Assay Max Response: maximum response. Summed up:
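HEK-293 cells were co-transfected with Gal4-RORγ-LBD and a Gal4-luciferase reporter, then exposed overnight at 37 °C to compounds with […] ursolic acid present (0.2% DMSO). Luminescence was read with One-Glo after 10 min at RT, untreated signal was set as 100, and Max Response was taken as the upper plateau of a 4-parameter logistic fit.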
Background: Reporter assays use an easily measured gene product as a stand-in for the process of interest.

Where [1] appears, read: luciferase reporter, in presence of ursolic acid.
Setting [2] is: with 2 μM ursolic acid (RORγ antagonist), highest test concentration 10 μM.
Setting [3] is: ursolic acid present, luciferase readout.

With `C/C(=C\c1ccc2c(c1)N(S(=O)(=O)c1cccc(C(F)(F)F)c1)C[C@H](CCNC(=O)C(C)(C)O)O2)c1c(F)cccc1Cl` [Example 115, (S,E)-N-(2-(6-(2-(2-Chloro-6-fluorophenyl)prop-1-en-1-yl)-4-((3-(trifluoromethyl)phenyl)sulfonyl)-3,4-dihydro-2H-benzo[b][1,4]oxazin-2-yl)ethyl)-2-hydroxy-2-methylpropanamide], at RORγ-LBD (RORγ-LBD TR-FRET assay), the EC50 is less than 500 nM and the “TR-FRET Assay Max Response” value is recorded as “*** (a value in the range of greater than 150 to 200)”. Also, at Gal4-RORγ-LBD (setting [1]), the EC50 was less than 500 nM and the “Gal4-RORγ Assay Max Response” value was “* (a value in the range of 30 to 90)”.

For the compound `C/C(=C\c1ccc2c(c1)N(S(=O)(=O)c1cccc(C(F)(F)F)c1)C[C@H](CCNS(=O)(=O)C1CC1)O2)c1c(F)cccc1Cl` [Example 116A, (S,E)-N-(2-(6-(2-(2-chloro-6-fluorophenyl)prop-1-en-1-yl)-4-((3-(trifluoro-methyl)phenyl)-sulfonyl)-3,4-dihydro-2H-benzo[b][1,4]oxazin-2-yl)ethyl)cyclopropane-sulfonamide], at RORγ-LBD (RORγ-LBD TR-FRET assay), the EC50 is less than 500 nM and the “TR-FRET Assay Max Response” value is “*** (a value in the range of greater than 150 to 200)”. Besides, on Gal4-RORγ-LBD (setting [1]), the EC50 is less than 500 nM and the “Gal4-RORγ Assay Max Response” value is on record as “** (a value in the range of greater than 90 to 150)”.

Consider `COc1cc(S(=O)(=O)N2C[C@H](CCNC(C)=O)Oc3ccc(/C=C(\C)c4c(F)cccc4Cl)cc32)ccc1F` [Example 116B, (S,E)-N-(2-(6-(2-(2-chloro-6-fluorophenyl)prop-1-en-1-yl)-4-((4-fluoro-3-methoxyphenyl)-sulfonyl)-3,4-dihydro-2H-benzo[b][1,4]oxazin-2-yl)ethyl)acetamide], for which, at RORγ-LBD (RORγ-LBD TR-FRET assay), the EC50 was less than 500 nM and the “TR-FRET Assay Max Response” value is on record as “*** (a value in the range of greater than 150 to 200)”. At Gal4-RORγ-LBD (setting [1]), the half-maximal effective concentration (EC50) is less than 500 nM and the “Gal4-RORγ Assay Max Response” value is listed as “* (a value in the range of 30 to 90)”.

For the compound `CCOC(=O)C(=O)NCC[C@H]1CN(S(=O)(=O)c2ccc(F)c(OC)c2)c2cc(/C=C(\C)c3c(F)cccc3Cl)ccc2O1` [Example 116C, ethyl (S,E)-2-((2-(6-(2-(2-chloro-6-fluorophenyl)prop-1-en-1-yl)-4-((4-fluoro-3-methoxyphenyl)sulfonyl)-3,4-dihydro-2H-benzo[b][1,4]oxazin-2-yl)ethyl)amino)-2-oxoacetate], on RORγ-LBD (RORγ-LBD TR-FRET assay), the EC50 is less than 500 nM and the “TR-FRET Assay Max Response” value is listed as “*** (a value in the range of greater than 150 to 200)”. Further, at Gal4-RORγ-LBD (setting [1]), the EC50 fell in the range of 500 to 5000 nM and the “Gal4-RORγ Assay Max Response” value is recorded as “** (a value in the range of greater than 90 to 150)”.

Consider `COc1cc(S(=O)(=O)N2C[C@H](CCNC(=O)[C@H](C)O)Oc3ccc(/C=C(\C)c4c(F)cccc4Cl)cc32)ccc1F` [Example 116D, (S)-N-(2-((S)-6-((E)-2-(2-chloro-6-fluorophenyl)prop-1-en-1-yl)-4-((4-fluoro-3-methoxyphenyl)sulfonyl)-3,4-dihydro-2H-benzo[b][1,4]oxazin-2-yl)ethyl)-2-hydroxypropanamide], for which, on RORγ-LBD (RORγ-LBD TR-FRET assay), the EC50 is less than 500 nM and the “TR-FRET Assay Max Response” value is “*** (a value in the range of greater than 150 to 200)”. For the same compound, at Gal4-RORγ-LBD (setting [1]), the EC50 is less than 500 nM and the “Gal4-RORγ Assay Max Response” value is listed as “** (a value in the range of greater than 90 to 150)”.

For `CCn1cc(S(=O)(=O)N2C[C@H](CCNC(C)=O)Oc3ccc(/C=C(\C)c4c(F)cccc4Cl)cc32)c(Cl)n1` [Example 116E, (S,E)-N-(2-(4-((3-chloro-1-ethyl-1H-pyrazol-4-yl)sulfonyl)-6-(2-(2-chloro-6-fluorophenyl)-prop-1-en-1-yl)-3,4-dihydro-2H-benzo[b][1,4]oxazin-2-yl)ethyl)acetamide], at RORγ-LBD (RORγ-LBD TR-FRET assay), the concentration for a half-maximal effect (EC50) is less than 500 nM and the “TR-FRET Assay Max Response” value is “*** (a value in the range of greater than 150 to 200)”. Besides, on Gal4-RORγ-LBD (setting [1]), the EC50 was less than 500 nM and the “Gal4-RORγ Assay Max Response” value is reported as “** (a value in the range of greater than 90 to 150)”.

With `C/C(=C\c1ccc2c(c1)N(S(=O)(=O)c1cccc(C(F)(F)F)c1)C[C@H](NC(=O)C(C)(C)O)C2)c1c(F)cccc1Cl` [Example 116F, (R,E)-N-(7-(2-(2-chloro-6-fluorophenyl)prop-1-en-1-yl)-1-((3-(trifluoromethyl)-phenyl)sulfonyl)-1,2,3,4-tetrahydroquinolin-3-yl)-2-hydroxy-2-methylpropanamide], on RORγ-LBD (RORγ-LBD TR-FRET assay), the EC50 was less than 500 nM and the “TR-FRET Assay Max Response” value is “*** (a value in the range of greater than 150 to 200)”. For the same compound, on Gal4-RORγ-LBD (setting [1]), the EC50 is 500 to 5000 nM and the “Gal4-RORγ Assay Max Response” value is recorded as “* (a value in the range of 30 to 90)”.

In the case of `C/C(=C\c1ccc2c(c1)N(S(=O)(=O)c1cccc(C(F)(F)F)c1)C[C@@H](NC(=O)C(C)(C)O)C2)c1c(F)cccc1Cl` [Example 116G, (S,E)-N-(7-(2-(2-chloro-6-fluorophenyl)prop-1-en-1-yl)-1-((3-(trifluoromethyl)-phenyl)sulfonyl)-1,2,3,4-tetrahydroquinolin-3-yl)-2-hydroxy-2-methylpropanamide], on RORγ-LBD (RORγ-LBD TR-FRET assay), the EC50 was less than 500 nM and the “TR-FRET Assay Max Response” value is “*** (a value in the range of greater than 150 to 200)”. Further, at Gal4-RORγ-LBD (setting [1]), the EC50 was less than 500 nM and the “Gal4-RORγ Assay Max Response” value is given as “* (a value in the range of 30 to 90)”.

With `C/C(=C\c1ccc2c(c1)N(S(=O)(=O)c1cccc(C(F)(F)F)c1)C[C@H](NS(C)(=O)=O)C2)c1c(F)cccc1Cl` [Example 116H, (R,E)-N-(7-(2-(2-chloro-6-fluorophenyl)prop-1-en-1-yl)-1-((3-(trifluoromethyl)phenyl)-sulfonyl)-1,2,3,4-tetra-hydroquinolin-3-yl)methanesulfonamide], at RORγ-LBD (RORγ-LBD TR-FRET assay), the EC50 was less than 500 nM and the “TR-FRET Assay Max Response” value is reported as “*** (a value in the range of greater than 150 to 200)”. On Gal4-RORγ-LBD (setting [1]), the EC50 is less than 500 nM and the “Gal4-RORγ Assay Max Response” value is reported as “** (a value in the range of greater than 90 to 150)”.

With `C/C(=C\c1ccc2c(c1)N(S(=O)(=O)c1cccc(C(F)(F)F)c1)C[C@@H](NS(C)(=O)=O)C2)c1c(F)cccc1Cl` [Example 116I, (S,E)-N-(7-(2-(2-chloro-6-fluorophenyl)prop-1-en-1-yl)-1-((3-(trifluoromethyl)phenyl)-sulfonyl)-1,2,3,4-tetrahydroquinolin-3-yl)methanesulfonamide], at RORγ-LBD (RORγ-LBD TR-FRET assay), the concentration for a half-maximal effect (EC50) is less than 500 nM and the “TR-FRET Assay Max Response” value was “*** (a value in the range of greater than 150 to 200)”. Further, at Gal4-RORγ-LBD (setting [1]), the EC50 is 500 to 5000 nM and the “Gal4-RORγ Assay Max Response” value is “** (a value in the range of greater than 90 to 150)”.

With `C/C(=C\c1ccc2c(c1)N(S(=O)(=O)c1cccc(C(F)(F)F)c1)[C@H](C)[C@H](NS(C)(=O)=O)C2)c1c(F)cccc1Cl` [Example 116J, N-((2R,3R)-7-((E)-2-(2-chloro-6-fluorophenyl)prop-1-en-1-yl)-2-methyl-1-((3-(trifluoromethyl)phenyl)sulfonyl)-1,2,3,4-tetra-hydroquinolin-3-yl)methanesulfonamide], on RORγ-LBD (RORγ-LBD TR-FRET assay), the EC50 is less than 500 nM and the “TR-FRET Assay Max Response” value is listed as “*** (a value in the range of greater than 150 to 200)”. Moreover, on Gal4-RORγ-LBD (setting [1]), the EC50 was in the range of 500 to 5000 nM and the “Gal4-RORγ Assay Max Response” value was “*** (a value in the range of greater than 150 to 200)”.

As to `COc1cc(S(=O)(=O)N2C[C@H](CCNC(=O)C(=O)O)Oc3ccc(/C=C(\C)c4c(F)cccc4Cl)cc32)ccc1F` [Example 116K, (S,E)-2-((2-(6-(2-(2-chloro-6-fluorophenyl)prop-1-en-1-yl)-4-((4-fluoro-3-methoxyphenyl)sulfonyl)-3,4-dihydro-2H-benzo[b][1,4]-oxazin-2-yl)ethyl)amino)-2-oxoacetic acid], on RORγ-LBD (RORγ-LBD TR-FRET assay), the concentration giving a half-maximal response (EC50) is less than 500 nM and the “TR-FRET Assay Max Response” value is given as “*** (a value in the range of greater than 150 to 200)”. For the same compound, at Gal4-RORγ-LBD (setting [1]), the concentration giving a half-maximal response (EC50) was in the range of 500 to 5000 nM and the “Gal4-RORγ Assay Max Response” value is on record as “** (a value in the range of greater than 90 to 150)”.

Take `C/C(=C\c1ccc2c(c1)N(S(=O)(=O)c1cccc(C(F)(F)F)c1)C[C@H](CNC(=O)N1CCOCC1)O2)c1c(F)cccc1Cl` [Example 116N, (S,E)-N-((6-(2-(2-chloro-6-fluorophenyl)prop-1-en-1-yl)-4-((3-(trifluoromethyl)phenyl)sulfonyl)-3,4-dihydro-2H-benzo[b][1,4]-oxazin-2-yl)methyl)morpholine-4-carboxamide]: the EC50 on RORγ-LBD (setting [2]) and at Gal4-RORγ-LBD (setting [3]) was less than 500 nM in each case.

Regarding `C/C(=C\c1ccc2c(c1)N(S(=O)(=O)c1cccc(C(F)(F)F)c1)C[C@H](CNC(=O)N1CCC(C(=O)O)CC1)O2)c1c(F)cccc1Cl` [Example 116O, (S,E)-1-(((6-(2-(2-chloro-6-fluorophenyl)prop-1-en-1-yl)-4-((3-(trifluoromethyl)phenyl)sulfonyl)-3,4-dihydro-2H-benzo[b][1,4]oxazin-2-yl)methyl)carbamoyl)piperidine-4-carboxyic acid], the EC50 on RORγ-LBD (setting [2]) and at Gal4-RORγ-LBD (setting [3]) was less than 500 nM each time.

One may read the EC50 as the concentration at which the effect is half-maximal.
